The record followed here is patent US20150223463A1, “SPIROCYCLIC ISOXAZOLINE DERIVATIVES FOR TREATMENT OF SEA LICE” (Zoetis LLC, priority 2012, published 2015).

This experiment deals with Lepeophtheirus salmonis (sea lice). The experiment is described as follows: Sea lice bioassay, 24 hours exposure to test compound. The class given is in vivo. Particulars: predominantly pre-adult and adult stage, generally chemical resistant strain.

On to Emamectin, for which, for the setting “adult female sea lice”, the “Adult Females (EC50)” value is reported as 65 ppb. For the same substance, the “Adult Males (EC50)” value (adult male sea lice) is given as 202 ppb.
